Data set [1] concerns WAGA cells (VP-MCC). In words: qHTS cell viability (CellTiter-Glo, 72 h; primary and follow-up small molecule screen). The data set is classed as cell-based, human. (Quantitative high-throughput screening tests each substance at several concentrations.)
Data set [2] concerns HACAT cells. In words: qHTS cell viability (CellTiter-Glo, 72 h; primary screen), control cell line. The data set is classed as cell-based, human.
For data set [3], the system named is VN-MCC cell lines (MCC13, MCC26, UISO). Briefly: qHTS cell viability, VN-MCC cell lines as a group (mean AUC, VN.MCC.avg). The data set is classed as cell-based, human.
In data set [4] the test system is six MCC cell lines and four control cell lines. Briefly: qHTS cell viability, all 10 cell lines screened. The data set is classed as cell-based.
The subject of data set [5] is MKL-2 cells (VP-MCC). Briefly: qHTS cell viability (CellTiter-Glo, 72 h; primary and follow-up small molecule screen). The data set is classed as cell-based, human.
Data set [6] has as its system control cell lines (HACAT, HEK293T, CRL-7250, NIH-3T3). In words: qHTS cell viability, control cell lines as a group (mean AUC, Control.avg). The data set is classed as cell-based.
For data set [7], the system named is VP-MCC cell lines (WAGA, MKL-1, MKL-2). In words: qHTS cell viability, VP-MCC cell lines as a group (mean AUC, VP.MCC.avg). The class given is cell-based, human.
Data set [8] has as its system HEK293T cells. Briefly: qHTS cell viability (CellTiter-Glo, 72 h; primary screen), control cell line. The data set is classed as cell-based, human.
The subject of data set [9] is MCC cell lines (WAGA, MKL-1, MKL-2, MCC13, MCC26, UISO). Briefly: qHTS cell viability, all six MCC cell lines as a group (mean AUC, MCC.avg). The class given is cell-based, human.
The subject of data set [10] is NIH-3T3 cells. In words: qHTS cell viability (CellTiter-Glo, 72 h; primary screen), control cell line. The class given is cell-based, mouse.
Data set [11] concerns CRL-7250 cells. The description is as above. The class given is cell-based.
The subject of data set [12] is UISO cells (VN-MCC). In words: qHTS cell viability (CellTiter-Glo, 72 h; primary and follow-up small molecule screen). The class given is cell-based, human.
The subject of data set [13] is MKL-1 cells (VP-MCC). The description is as above. The data set is classed as cell-based, human.
Data set [14] relates to MCC13 cells (VN-MCC). Described as above. The data set is classed as cell-based, human.
Data set [15] has as its system MCC26 cells (VN-MCC). The description is as above. The class given is cell-based, human.
The subject of data set [16] is MKL-2 cells (VP-MCC). The data set is classed as cell-based, human. As for the experimental part:
(§1) A non-targeting control (Silencer Select Negative Control No. 2 siRNA) and a positive control (AllStars Cell Death Control siRNA) were used as controls. Lipofectamine RNAiMax (Thermo Fisher Scientific, Grand Island, NY) was obtained as the transfection reagent. […] Three siRNAs per gene were arrayed in 384 well plates, one siRNA per well. […] Cell viability was measured by CellTiter-Glo assay following the manufacturer's instructions (G7572; Promega, Madison, WI, USA) 96 h after siRNA transfection. Assay plates were measured using BMG Pherastar plate reader Three different siRNAs (sequences: [NT], and [NT] targeting INCENP as well as negative non-targeting siRNA control were purchased from Thermo Fisher Scientific (Grand Island, NY).

The test system of data set [17] is MCC26 cells (VN-MCC). The data set is classed as cell-based, human. As for the experimental part: as §1

`CCOc1cc(N2CCC(O)CC2)ccc1Nc1ncc2c(n1)N(C)c1ccccc1C(=O)N2C` [XMD8-92]: in data set [1], the WAGA_AUC is recorded as 403.248. Also, the HACAT_AUC in data set [2] was determined as 464.723. Moreover, in data set [3], the Control-VN-MCC is -5.684 and the VN-MCC_Avg_AUC came out at 464.751. The compound further came in with a Control-MCC in data set [4] of 31.2771. The MKL2_AUC in data set [5] stood at 364.829. In data set [6], this compound registered a Control_Avg_AUC of 459.068. In data set [7], this compound showed a Control-VP-MCC of 68.2382 and a VP-MCC_Avg_AUC of 390.829. Moreover, in data set [8], the HEK293T_AUC is reported as 449.91. Besides, the MCC_Avg_AUC in [9] is 427.79. In data set [10], this compound returned an NIH3T3_AUC of 462.049. The CRL7250_AUC in [11] came to 459.588. In [12], this compound gave a UISO_AUC of 455.545. In [13], this compound registered an MKL1_AUC of 404.412. The compound also showed an MCC13_AUC in data set [14] of 476.46. In addition, in data set [15], the MCC26_AUC was found to be 462.249.
As for “AAAUGUUGAUCUCCUUUCC (chemistry not given here)”, the figures for the Percent viability in [16] and in data set [17] were 84.7% and 97.2%, respectively.
For “AGAUCAACCCAGAUAACUAtt (AGAUCAACCCAGAUAACUATT; chemistry not given here)”, in that order: 48.5% and 73.1%.

The values above are taken from publication PMC11822212, “High-throughput screening identifies Aurora kinase B as a critical therapeutic target for Merkel cell carcinoma” (Nature Communications, 2025).
